For 1 compound, IC50 results are on record in BindingDB's records for patent US9278914 (University of Tennessee Research Foundation, 2016).

In this data set the target is Cytochrome P450 2C9 (Homo sapiens, UniProt P11712). Briefly: In Vitro CYP Inhibition Assay. The conditions noted are these: 37 °C.

Molecules are shown by their SMILES.

Sequence of Cytochrome P450 2C9 (P11712 whole entry): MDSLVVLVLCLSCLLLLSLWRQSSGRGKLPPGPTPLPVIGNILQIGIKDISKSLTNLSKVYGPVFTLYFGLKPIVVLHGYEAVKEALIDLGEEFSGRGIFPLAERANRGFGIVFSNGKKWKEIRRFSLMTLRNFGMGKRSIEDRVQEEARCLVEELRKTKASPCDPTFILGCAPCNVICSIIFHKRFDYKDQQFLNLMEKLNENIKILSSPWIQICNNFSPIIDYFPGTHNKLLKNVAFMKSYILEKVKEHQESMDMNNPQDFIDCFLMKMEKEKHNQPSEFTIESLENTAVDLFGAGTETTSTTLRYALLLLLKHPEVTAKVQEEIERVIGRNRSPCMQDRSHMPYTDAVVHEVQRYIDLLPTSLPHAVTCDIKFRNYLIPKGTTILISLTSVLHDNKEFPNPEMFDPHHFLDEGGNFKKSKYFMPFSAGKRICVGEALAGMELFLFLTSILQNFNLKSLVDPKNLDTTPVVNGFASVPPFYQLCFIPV

A word on the IC50: it is the concentration needed to halve the response being measured. On to `C[C@](O)(COc1ccc(Cl)c(F)c1)C(=O)Nc1ccc(C#N)c(C(F)(F)F)c1` [US9278914, S-II], for which the IC50 was > 20 µM.
